The text below walks through data of ChEMBL document CHEMBL1201862, “PubChem BioAssay data set” (2004).

Among the test systems are A549; CAKI-1; HL-60; MCF7; MDA-MB-435; NCI-H226; NCI-H460; NCI/ADR-RES; OVCAR-3; PC-3; RPMI-8226; SK-MEL-28; SK-OV-3; SNB-19; T47D; TK-10; UO-31; CCRF-CEM; MDA-N; SR.
Holding throughout (test): DTP human tumour cell line panel, 48 h

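A five-concentration, 48-hour dose response in 96-well plates underlies each endpoint, interpolated linearly between surrounding concentrations. Here, GI50 denotes the concentration required for 50% inhibition of growth.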 Activity calls are given as the source filed them. No stated cut-off is given here; in the data, active = GI50 up to about 1.1 µM and inactive = higher. A value given as a limit tells only on which side of the number the result lay.

Regarding `Cc1c(C(=O)O)sc2nc[nH]c(=O)c12`, the GI50 in the experiment with A549 is > 100 µM (inactive); in the experiment with CAKI-1, 50.2 µM (inactive); in the experiment with HL-60 it was > 100 µM (inactive); with MCF7 it was > 100 µM (inactive); in the experiment on MDA-MB-435, > 100 µM (inactive); in the experiment on NCI-H226 it was 25.1 µM (inactive). Also, the GI50 with NCI-H460, in the experiment on NCI/ADR-RES, in the experiment with OVCAR-3, in the experiment with PC-3, in the experiment on RPMI-8226 and in the experiment on SK-MEL-28 was > 100 µM (inactive) in each case. Besides, the GI50 with SK-OV-3, with SNB-19, in the experiment with T47D, in the experiment on TK-10 and in the experiment on UO-31 was > 100 µM (inactive) throughout.

On to `CCCCCCCCC/C=C1\CCC(CN2CCOCC2)C1=O` (centres undefined), for which the GI50 is 15 µM (inactive) in the experiment with A549; 4.6 µM (inactive) with CAKI-1; 1.8 µM (inactive) in the experiment with CCRF-CEM; 1.67 µM (inactive) with HL-60; 1.03 µM (active) with MCF7; 2.36 µM (inactive) with MDA-MB-435. Further, the GI50 in the experiment on MDA-N is 2.64 µM (inactive); in the experiment on NCI-H226, 5.61 µM (inactive); in the experiment with NCI-H460, 7.26 µM (inactive); in the experiment on OVCAR-3, 8.55 µM (inactive); with PC-3, 1.79 µM (inactive); in the experiment on RPMI-8226, 0.303 µM (active). The GI50 in the experiment on SK-MEL-28 is 3.05 µM (inactive); in the experiment with SK-OV-3, 17.3 µM (inactive); in the experiment on SNB-19 it was 9.04 µM (inactive); with SR, 2.38 µM (inactive); with TK-10, 2.33 µM (inactive); in the experiment on UO-31 it was 4.95 µM (inactive).

Take `CCN(CC)CC(O)CNc1ccc(NCC2CO2)c2c1C(=O)c1ccccc1C2=O` (centres undefined): the concentration for 50% growth inhibition (GI50) in the experiment with A549 was 1.03 µM (active); in the experiment with CAKI-1 it was 0.619 µM (active); in the experiment with HL-60, 0.0236 µM (active); in the experiment with MCF7 it was 0.0109 µM (active); with MDA-MB-435, 0.211 µM (active); in the experiment with MDA-N, 0.323 µM (active). Moreover, the GI50 is 1.32 µM (inactive) with NCI-H226; 0.695 µM (active) in the experiment on NCI-H460; 0.0993 µM (active) in the experiment with NCI/ADR-RES; 0.46 µM (active) in the experiment with OVCAR-3; 0.74 µM (active) in the experiment with PC-3; 0.614 µM (active) in the experiment with RPMI-8226. The concentration for 50% growth inhibition (GI50) in the experiment on SK-MEL-28 was 1.11 µM (active); in the experiment on SK-OV-3, 1.86 µM (inactive); in the experiment with SNB-19 it was 1.68 µM (inactive); in the experiment on SR it was 0.055 µM (active); in the experiment with TK-10, 2.29 µM (inactive); in the experiment on UO-31, 0.594 µM (active).

`COc1ccccc1CNC1=Nc2ccncc2S(=O)(=O)N1c1ccccc1`: the GI50 in the experiment with A549 was > 100 µM (inactive); with CAKI-1, 63.8 µM (inactive); in the experiment on CCRF-CEM it was 95.5 µM (inactive); with HL-60, 41.1 µM (inactive); with MCF7, 79.4 µM (inactive); in the experiment with MDA-MB-435 it was > 100 µM (inactive). The GI50 was > 100 µM (inactive) in the experiment on NCI-H226; 60.4 µM (inactive) with NCI-H460; 57.5 µM (inactive) in the experiment on NCI/ADR-RES; > 100 µM (inactive) in the experiment with OVCAR-3; 31 µM (inactive) in the experiment on PC-3; 60.5 µM (inactive) in the experiment with RPMI-8226. The GI50 in the experiment with SK-MEL-28 is > 100 µM (inactive); in the experiment with SK-OV-3, > 100 µM (inactive); in the experiment on SNB-19, > 100 µM (inactive); with SR, 92.7 µM (inactive); with TK-10, > 100 µM (inactive); in the experiment on UO-31, > 100 µM (inactive).

As to `Nc1ccc2ccc(N3CCNCC3)nc2n1`, the GI50 in the experiment on A549 was > 100 µM (inactive); in the experiment with CAKI-1, > 100 µM (inactive); with CCRF-CEM it was 31.6 µM (inactive); in the experiment on HL-60 it was 34 µM (inactive); in the experiment on MCF7 it was 70 µM (inactive); with MDA-MB-435 it was 49.7 µM (inactive). For the same compound, the GI50 in the experiment with MDA-N was 75 µM (inactive); with NCI-H226 it was 21.4 µM (inactive); in the experiment with NCI-H460, 44 µM (inactive); with NCI/ADR-RES, > 100 µM (inactive); with OVCAR-3, 17.9 µM (inactive); in the experiment with PC-3, 44.7 µM (inactive). The GI50 in the experiment on RPMI-8226 was 84.3 µM (inactive); with SK-MEL-28, > 100 µM (inactive); in the experiment with SK-OV-3 it was 83.9 µM (inactive); in the experiment on SNB-19 it was 42.2 µM (inactive); in the experiment on SR, 33.4 µM (inactive); in the experiment on TK-10, > 100 µM (inactive). Further, the GI50 in the experiment on UO-31 is 50.4 µM (inactive).

As for `CN1C(=O)C(C(=O)Nc2ccccn2)C2C[C@@]1(C)Oc1ccccc12` (some centres undefined), the GI50 with A549, with CAKI-1, in the experiment with CCRF-CEM, with HL-60, in the experiment on MDA-MB-435 and in the experiment with MDA-N was > 100 µM (inactive) throughout. Besides, the GI50 with NCI-H226 is > 100 µM (inactive); with NCI-H460, > 100 µM (inactive); in the experiment with NCI/ADR-RES, > 100 µM (inactive); in the experiment with OVCAR-3 it was > 100 µM (inactive); in the experiment with PC-3, > 100 µM (inactive); in the experiment on RPMI-8226, 56.1 µM (inactive). Also, the GI50 in the experiment on SK-MEL-28, with SK-OV-3, in the experiment on SNB-19, in the experiment with TK-10 and in the experiment on UO-31 was > 100 µM (inactive) in each case.

For `COC(=O)NCCc1n[nH]c2c1C(=O)C=C(OC)C2=O`, the GI50 in the experiment with A549 was 46.7 µM (inactive); in the experiment with CAKI-1, 24.5 µM (inactive); in the experiment on CCRF-CEM it was 21.1 µM (inactive); with HL-60, 16.6 µM (inactive); in the experiment on MCF7, 27.2 µM (inactive); with MDA-MB-435, 14.6 µM (inactive). Moreover, the GI50 in the experiment with MDA-N was 17.9 µM (inactive); with NCI-H226, 23 µM (inactive); in the experiment with NCI-H460 it was > 100 µM (inactive); in the experiment on NCI/ADR-RES, > 100 µM (inactive); in the experiment with OVCAR-3, 17.9 µM (inactive); in the experiment on PC-3 it was 34.9 µM (inactive). For the same compound, the GI50 in the experiment with RPMI-8226 was 24.5 µM (inactive); with SK-MEL-28 it was 20.1 µM (inactive); in the experiment on SK-OV-3, > 100 µM (inactive); in the experiment on SNB-19 it was 21.3 µM (inactive); with SR, 15 µM (inactive); with TK-10, 43.9 µM (inactive). The GI50 in the experiment on UO-31 is 24.3 µM (inactive).

On to `C(CCCCc1nnc(N2CCCCC2)o1)CCCc1nnc(N2CCCCC2)o1`, for which the GI50 in the experiment with A549, in the experiment on CAKI-1, in the experiment with CCRF-CEM, in the experiment with HL-60, in the experiment on MCF7 and with MDA-MB-435 was > 100 µM (inactive) in each case. Further, the GI50 in the experiment on NCI-H226, with NCI-H460, in the experiment on NCI/ADR-RES, in the experiment with OVCAR-3, in the experiment on PC-3 and with SK-MEL-28 was > 100 µM (inactive) in each case. Moreover, the GI50 in the experiment on SK-OV-3, in the experiment on SNB-19, with TK-10 and with UO-31 was > 100 µM (inactive) throughout.

Take `O=C(N/C=C1\C(=O)Oc2ccccc2C1=O)Nc1ccccc1`: the GI50 in the experiment with A549 was 53.1 µM (inactive); with CAKI-1 it was 15.1 µM (inactive); with CCRF-CEM, > 100 µM (inactive); in the experiment with HL-60, > 100 µM (inactive); in the experiment with NCI-H226 it was 23.5 µM (inactive); with NCI-H460 it was 63.8 µM (inactive). Further, the GI50 with OVCAR-3 is 75 µM (inactive); in the experiment with RPMI-8226, > 100 µM (inactive); in the experiment with SK-MEL-28, 87.1 µM (inactive); in the experiment on SK-OV-3, 31.6 µM (inactive); in the experiment with SNB-19 it was 29 µM (inactive); in the experiment with SR, 69 µM (inactive). Also, the GI50 in the experiment on TK-10 is 34 µM (inactive); in the experiment on UO-31, 28.3 µM (inactive).

Take `O=C(/C=C1\NC(=O)c2ccccc2N1)c1ccncc1`: the GI50 in the experiment on A549, in the experiment on CAKI-1, in the experiment on CCRF-CEM, in the experiment on HL-60, with NCI-H226 and in the experiment with NCI-H460 was > 100 µM (inactive) in each case. Besides, the GI50 with OVCAR-3, with RPMI-8226, with SK-MEL-28, in the experiment on SK-OV-3, in the experiment on SNB-19 and in the experiment on SR was > 100 µM (inactive) throughout. The GI50 in the experiment with TK-10 and in the experiment on UO-31 was > 100 µM (inactive) each time.

Turning to `CC(C)c1ccc(O)c(Cc2cc(C(C)C)cc(Cc3cc(C(C)C)ccc3O)c2O)c1`, the GI50 was 1.9 µM (inactive) in the experiment with A549; 1.53 µM (inactive) in the experiment on CAKI-1; 3.39 µM (inactive) in the experiment on CCRF-CEM; 2 µM (inactive) in the experiment on HL-60; 1.54 µM (inactive) in the experiment with NCI-H226; 1.83 µM (inactive) in the experiment with NCI-H460. Further, the GI50 in the experiment with OVCAR-3 was 1.65 µM (inactive); with RPMI-8226, 2.08 µM (inactive); in the experiment on SK-MEL-28, 1.73 µM (inactive); with SK-OV-3, 1.68 µM (inactive); in the experiment with SNB-19, 1.65 µM (inactive); with SR, 1.88 µM (inactive). The GI50 with TK-10 was 1.93 µM (inactive); in the experiment on UO-31, 1.68 µM (inactive).

On to `CC(C)C1=CC23CCC4C(C)(C(=O)O)CCCC4(C)C2CC1C(C(=O)O)C3C(=O)O` (centres undefined), for which the GI50 in the experiment with A549, in the experiment on CAKI-1, in the experiment on CCRF-CEM, in the experiment on MDA-MB-435, in the experiment with NCI-H226 and in the experiment on NCI-H460 was > 100 µM (inactive) in each case. Also, the GI50 in the experiment with NCI/ADR-RES, in the experiment on OVCAR-3, in the experiment on PC-3, with SK-MEL-28, in the experiment on SNB-19 and in the experiment with SR was > 100 µM (inactive) throughout. Besides, the GI50 in the experiment on T47D, in the experiment on TK-10 and in the experiment on UO-31 was > 100 µM (inactive) each time.
